Reference: patent US5959145A, “Fatty acid analog enzyme substrates” (priority 1993, dated 1999)
“Also recorded” adds a separate entry of the source. No end group written: not given here. *: point of attachment. 11‑(ethylthio)undecanoyl = CCSCCCCCCCCCCC(=O)*; 125I = [125I]*

Tests used:
[1] = C18 reverse phase HPLC elution of fatty acyl peptides (hydrophobicity); format: physicochemical; details: for Elution Time: C18 reverse phase HPLC, acyl derivative of GNAAS[125I]YRR, Table 2; for elution earlier than corresponding myristoyl-peptide: C-18 reverse phase HPLC, FIG. 2
Method: The fatty acid analog acyl-peptide eluted 7 minutes earlier than the corresponding myristoyl peptide. The free peptide elutes in the void volume (3-5minutes).
This difference was evident when the HPLC elution characteristics of fatty acyl peptides were examined. The elution time of a particular acyl-peptide depends strongly on the peptide sequence as well as on the acyl chain attached to that peptide. For example, the elution times of fatty acyl derivatives of GNAAAARR are (in minutes) decanoic acid, 9; dodecanoic acid, 18; myristic acid, 24; and palmitic acid, 30. Elution times for fatty acyl derivatives of GNAAS[^125 I]YRR are 23 and 28 minutes for C12 and C14 fatty acids, respectively (FIG. 2). […] Such a change could alter the biological activity of myristoyl proteins.
(§1) For these Examples, each analog synthesized is characterized by ^1 H and ^13 C NMR as well as mass spectroscopy. The analogs are then characterized kinetically as NMT substrates. Briefly, fatty acid analogs are converted to their CoA esters with Pseudomonas CoA ligase and incubated with the iodinated peptide GNAAS[^125 I]YRR and a source of NMT. […] The radiolabelled peptide is then used at concentrations which will lead to 50% enzyme saturation (i.e., at its Km) for the determination of fatty acid analog kinetic characteristics. Representative analogs with sulfur or oxygen in the backbone of the fatty acid chain serve as good substrates for NMT in vitro and will compete for incorporation of ^3 H labelled myri-state into yeast proteins in vivo. In addition, these analogs differ markedly in hydrophobicity from myri-state as measured both by C18 reverse phase HPLC elution profiles and by 2-octanol/water partition coefficients. The analog CH3 O(CH2)11 COOH, for example, partitions into water 20 fold better than myristate. It is believed that these analogs will be incorporated into mammalian acylproteins in vivo and that their incorporation into these proteins will drastically alter protein processing or targeting. It is further believed that the incorporation of fatty acid analogs of both myristate and palmitate into ester linked and phosphatidyl inositol glycan linked acylproteins will also dramatically alter their properties. Since many viral proteins and oncogenes are acylated, these compounds represent a new class of potential antiviral and antineoplastic agents.

[2] = molecular target: T1, yeast NMT (Saccharomyces cerevisiae, UniProt P14743); assay: kinetic characterisation of fatty acid analogs as yeast NMT substrates; format: biochemical; details: for Peptide Vm: peptide GNAAS[125I]YRR varied, fatty acid analog at 15 μM; for Peptide Vm / Acyl CoA Vm: myristate control = 100%; for Acyl CoA Vm / Km: radiolabelled peptide at its Km, analog varied; for Km: read-out: Acyl CoA Km
T1 construct: 11,000-fold purified preparation of yeast NMT; endogenous in cells; host or cells: yeast (enzyme purified from yeast, 11,000-fold)
T1 sequence (P14743 1-455): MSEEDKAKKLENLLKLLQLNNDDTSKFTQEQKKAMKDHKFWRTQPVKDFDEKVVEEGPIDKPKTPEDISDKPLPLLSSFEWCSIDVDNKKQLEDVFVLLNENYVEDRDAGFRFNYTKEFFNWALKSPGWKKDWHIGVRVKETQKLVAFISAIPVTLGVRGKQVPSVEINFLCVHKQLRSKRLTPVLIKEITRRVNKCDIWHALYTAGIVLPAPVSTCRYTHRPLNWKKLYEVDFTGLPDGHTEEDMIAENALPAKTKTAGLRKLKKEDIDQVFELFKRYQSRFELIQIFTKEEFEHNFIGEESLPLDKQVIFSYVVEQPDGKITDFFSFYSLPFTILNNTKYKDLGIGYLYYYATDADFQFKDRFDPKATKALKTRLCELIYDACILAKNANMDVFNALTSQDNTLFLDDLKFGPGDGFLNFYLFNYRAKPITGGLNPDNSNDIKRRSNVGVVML
Description: Similar results were obtained using an 11,000-fold purified preparation of yeast NMT [Towler et al., Proc. Natl. Acad. Sci. USA 84, 2708-2712 (1987)].
Other illustrative examples of the oxy- and thio-substituted fatty acid analog substrate compounds of the invention were synthesized in Examples 6 to 14 and tested in Example 15 as substrates for the yeast NMT.
as §1

[3] = system: wheat germ NMT; assay: in vitro myristoylation assay with partially purified wheat germ NMT; format: biochemical
Method: Myristoyl CoA and fatty acid analog CoA were generated by incubation of the fatty acid or analog with CoA, ATP and CoA ligase. This reaction mixture was added to wheat germ NMT and Gly-Asn-Ala-Ala-Ser- [^125 I]Tyr-Arg-Arg in the presence of 0.03% Triton® X-100. Reaction products were characterized by reverse phase HPLC and gamma counting.
The invention is illustrated in greater detail in the following Examples 1 to 15 by the synthesis and testing of representative compounds of the invention as myristoylating enzyme substrates. Accordingly, the invention is first illustrated in Examples 1 to 5 by the chemical synthesis of a sulfur-containing analog of myristic acid, namely 11-(ethylthio)undecanoicacid, CH3 CH2 --S--(CH2)10 COOH, which is then tested in vitro as a wheat germ NMT substrate. Wheat germ NMT is a protein similar to yeast NMT. The purity and chemical identity of the synthesized compound were examined using ^1 H and ^13 C NMR as well as mass spectroscopy. The assay that was used to characterize the substrate specificity of wheat germ NMT measures the rate of attachment of a radiolabelled fatty acid to an unlabelled peptide. The fatty acid analog synthesized was nonradioactive.
Characterization of Partially Purified Wheat Germ NMT--Assays for NMT activity were performed using a procedure detailed previously by Towler and Glaser, Proc. Natl. Acad. Sci. USA 83, 2812-2816 (1986). Briefly, the in vitro assay measures the transfer of radiolabelled fatty acid from acyl CoA to a synthetic peptide substrate. The acylpeptide product is identified by reverse phase HPLC. Time and enzyme dependence were evaluated by varying the reaction time or the enzyme concentration. […] Fatty acid specificity was examined essentially as described by Towler et al., J. Biol. Chem. 262, 1030-1036 (1987), except that the peptide Gly-Ser-Ser-Lys-Ser-Lys-Pro-Lys rather than Gly-Asn-Ala-Ala-Ala-Ala-Arg-Arg was used to compare palmitate and myristate utilization by wheat germ NMT. This was necessary because of the presence of a large, peptide-independent peak which co-eluted with a palmitoyl-Gly-Asn-Ala-Ala-Ala-Ala-Arg-Arg standard. [^3 H]Palmitate and [^3 H]myristate were used in this comparison. [^14 C]fatty acids were used to compare C-10, C-12 and C-14 chain lengths. Fatty acyl CoA concentrations in these assays were determined by a modification of the method of Hosaka et al., Methods Enzymol. 71, 325-333 (1981).
Characterization of the Fatty Acid Analog--Gly-Asn-Ala-Ala-Ser-[^125 I]Tyr-Arg-Arg as prepared in Example 2, above, was tested in an in vitro myristoylation system which was modified from that used with radiolabelled fatty acids. […] 20-fold more wheat germ NMT (480-fold purified as in Example 3, above) was used for these assays than for assays which employed [^3 H] myristate. […] Double reciprocal plots were generated for the iodinated peptide with both myristic acid and the sulfur analog by altering the peptide concentration in the presence of a constant amount of fatty acid or analog. […] The assays contained 0.03% Triton X-100 to maintain the solubility of the fatty acids.

[4] = CoA ester, 40 μM iodinated peptide, 0.03% Triton X-100, FIG. 1

Compound	Peptide Vm [2]	Acyl CoA Vm [2]	Km [2]	Elution Time [1]	other results
CCCCCCCCCCCCCCCC(=O)O [palmitic acid, reference compound]	–	–	–	–	elution time of fatty acyl derivative of GNAAAARR ([1]; reverse phase HPLC): 30 min
CCCCCCCCCCCC(=O)O [dodecanoic acid, reference compound]	–	–	–	–	elution time of fatty acyl derivative of GNAAAARR ([1]; reverse phase HPLC): 18 min; elution time of fatty acyl derivative of GNAAS[125I]YRR ([1]; reverse phase HPLC, FIG. 2, text): 23 min
CCCSCCCCCCCCCC(=O)O [G, 10-(Propylthio)decanoic acid]	245%	250%	1.5 µM	18 min	–
CCSCCCCCCCCCCC(=O)O [A, 11-(Ethylthio)undecanoic acid]	98%	130%	1.4 µM	18 min	Km compared with C14:0 fatty acid ([2]; 11,000-fold purified yeast NMT): indistinguishable; Vmax compared with C14:0 fatty acid ([2]; 11,000-fold purified yeast NMT): indistinguishable; Km for the analog relative to myristate [3, 4]: 1.5 times higher; Vmax for the analog relative to myristate [3, 4]: 3.5 times higher; Km ([3]; fatty acid or analog at 5 μM, peptide varied, read-out: Km of peptide substrate Gly-Asn-Ala-Ala-Ser-[125I]Tyr-Arg-Arg): 7 µM; ability to act as a substrate for myristoyl CoA: protein N-myristoyl transferase (NMT) ([3]; in words): leaves intact; substrate quality of CoA ester for wheat germ NMT compared with myristoyl CoA ([3]; in words): at least as good a substrate; apparent maximal velocity relative to myristic acid ([3]; peptide varied, fatty acid or analog at 5 μM): 2.3 times higher; hydrophobicity compared with myristic acid, in words [1]: decreases its hydrophobicity; also recorded: significantly different
CCCCOCCCCCCCCCCC(=O)O [Compound I, 11-(1-Butoxy)undecanoic acid]	25%	80%	1 µM	19 min	effectiveness as NMT substrate, in words [2]: less effective
COCCCCCCCCCCC(=O)O [D, 11-(Methoxy)undecanoic acid]	232%	163%	6.9 µM	12 to 13 min	–
11-(ethylthio)undecanoyl-GNAAS[^125 I]YRR ({11‑(ethylthio)undecanoyl}-GNAASY(125I)RR) [fatty acid analog acyl-peptide formed by NMT from compound A and iodinated peptide GNAASYRR]	–	–	–	–	elution earlier than corresponding myristoyl-peptide [1]: seven; elution earlier than corresponding myristoyl-peptide ([1]; listed as 11-(ethylthio)undecanoyl-GNAASYRR[^125 I]): 7 min
CCCCCCCCOCCCCC(=O)O [F, 5-(octyloxy)pentanoic acid]	335%	675%	1.6 µM	16 min	–
CCCOCCCCCCCCCC(=O)O [H, 10-(Propoxy)decanoic acid]	150%	250%	6.1 µM	11 to 12 min	–
CCOCCCCCCCCCCC(=O)O [B, 11-(Ethoxy)undecanoic acid]	62%	64%	1.8 µM	12 min	–
CCCCCCCCCC(=O)O [decanoic acid, reference compound]	–	–	–	–	elution time of fatty acyl derivative of GNAAAARR ([1]; reverse phase HPLC): 9 min
C#CCOCCCCCCCCCC(=O)O [J, 10-(2-Propynoxy)decanoic acid]	200%	320%	6.5 µM	9 min	–
CCCCCCCCSCCCCC(=O)O [C, 5-(Octylthio)pentanoic acid]	213%	160%	1.5 µM	24 min	–
